Numbers after ± are expanded uncertainties.
Details: Liquid, Vibrating tube method

For `CCCCCCCCO` [octan-1-ol], the mass density (278.15 K, 100 kPa) was 835.2 ± 2.4 kg/m3, the mass density (278.15 K, 1000 kPa) was 835.7 ± 2.4 kg/m3 and the mass density (278.15 K, 5000 kPa) was 838 ± 2.4 kg/m3. The mass density (278.15 K, 10000 kPa) was 841 ± 2.4 kg/m3, the mass density (278.15 K, 15000 kPa) was 843.7 ± 2.4 kg/m3 and the mass density (278.15 K, 20000 kPa) was 846.4 ± 2.4 kg/m3. It also gave a mass density (278.15 K, 25000 kPa) of 849 ± 2.4 kg/m3, a mass density (278.15 K, 30000 kPa) of 851.5 ± 2.4 kg/m3 and a mass density (278.15 K, 35000 kPa) of 854 ± 2.4 kg/m3. The mass density (278.15 K, 40000 kPa) was 856.4 ± 2.4 kg/m3, the mass density (278.15 K, 45000 kPa) was 858.8 ± 2.4 kg/m3 and the mass density (278.15 K, 50000 kPa) was 861.1 ± 2.4 kg/m3. For the same compound, the mass density (278.15 K, 55000 kPa) was 863.4 ± 2.4 kg/m3, the mass density (278.15 K, 60000 kPa) was 865.5 ± 2.4 kg/m3 and the mass density (288.15 K, 100 kPa) was 828.4 ± 2.4 kg/m3. The mass density (288.15 K, 1000 kPa) was 829 ± 2.4 kg/m3, the mass density (288.15 K, 5000 kPa) was 831.5 ± 2.4 kg/m3 and the mass density (288.15 K, 10000 kPa) was 834.4 ± 2.4 kg/m3. It also gave a mass density (288.15 K, 15000 kPa) of 837.3 ± 2.4 kg/m3, a mass density (288.15 K, 20000 kPa) of 840.1 ± 2.4 kg/m3 and a mass density (288.15 K, 25000 kPa) of 842.8 ± 2.4 kg/m3. The mass density (288.15 K, 30000 kPa) was 845.5 ± 2.4 kg/m3, the mass density (288.15 K, 35000 kPa) was 848 ± 2.4 kg/m3 and the mass density (288.15 K, 40000 kPa) was 850.5 ± 2.4 kg/m3. It also gave a mass density (288.15 K, 45000 kPa) of 852.9 ± 2.4 kg/m3, a mass density (288.15 K, 50000 kPa) of 855.3 ± 2.4 kg/m3 and a mass density (288.15 K, 55000 kPa) of 857.6 ± 2.4 kg/m3. For the same compound, the mass density (288.15 K, 60000 kPa) was 859.8 ± 2.4 kg/m3, the mass density (298.15 K, 100 kPa) was 821.4 ± 2.4 kg/m3 and the mass density (298.15 K, 1000 kPa) was 822 ± 2.4 kg/m3. The mass density (298.15 K, 5000 kPa) was 824.6 ± 2.4 kg/m3, the mass density (298.15 K, 10000 kPa) was 827.7 ± 2.4 kg/m3 and the mass density (298.15 K, 15000 kPa) was 830.7 ± 2.4 kg/m3. It also gave a mass density (298.15 K, 20000 kPa) of 833.6 ± 2.4 kg/m3, a mass density (298.15 K, 25000 kPa) of 836.4 ± 2.4 kg/m3 and a mass density (298.15 K, 30000 kPa) of 839.1 ± 2.4 kg/m3. The mass density (298.15 K, 35000 kPa) was 841.8 ± 2.4 kg/m3, the mass density (298.15 K, 40000 kPa) was 844.4 ± 2.4 kg/m3 and the mass density (298.15 K, 45000 kPa) was 846.9 ± 2.4 kg/m3. It also gave a mass density (298.15 K, 50000 kPa) of 849.4 ± 2.4 kg/m3, a mass density (298.15 K, 55000 kPa) of 851.7 ± 2.4 kg/m3 and a mass density (298.15 K, 60000 kPa) of 853.9 ± 2.4 kg/m3. The mass density (308.15 K, 100 kPa) was 814.5 ± 2.4 kg/m3, the mass density (308.15 K, 1000 kPa) was 815.1 ± 2.4 kg/m3 and the mass density (308.15 K, 5000 kPa) was 817.8 ± 2.4 kg/m3. For the same compound, the mass density (308.15 K, 10000 kPa) was 821.1 ± 2.4 kg/m3, the mass density (308.15 K, 15000 kPa) was 824.2 ± 2.4 kg/m3 and the mass density (308.15 K, 20000 kPa) was 827.2 ± 2.4 kg/m3. The mass density (308.15 K, 25000 kPa) was 830.1 ± 2.4 kg/m3, the mass density (308.15 K, 30000 kPa) was 833 ± 2.4 kg/m3 and the mass density (308.15 K, 35000 kPa) was 835.7 ± 2.4 kg/m3. It also gave a mass density (308.15 K, 40000 kPa) of 838.4 ± 2.4 kg/m3, a mass density (308.15 K, 45000 kPa) of 841 ± 2.4 kg/m3 and a mass density (308.15 K, 50000 kPa) of 843.5 ± 2.4 kg/m3. For the same compound, the mass density (308.15 K, 55000 kPa) was 846 ± 2.4 kg/m3, the mass density (308.15 K, 60000 kPa) was 848.2 ± 2.4 kg/m3 and the mass density (318.15 K, 100 kPa) was 807.5 ± 2.4 kg/m3. The mass density (318.15 K, 1000 kPa) was 808.1 ± 2.4 kg/m3, the mass density (318.15 K, 5000 kPa) was 811 ± 2.4 kg/m3 and the mass density (318.15 K, 10000 kPa) was 814.4 ± 2.4 kg/m3. The mass density (318.15 K, 15000 kPa) was 817.7 ± 2.4 kg/m3, the mass density (318.15 K, 20000 kPa) was 820.8 ± 2.4 kg/m3 and the mass density (318.15 K, 25000 kPa) was 823.8 ± 2.4 kg/m3. The mass density (318.15 K, 30000 kPa) was 826.8 ± 2.4 kg/m3, the mass density (318.15 K, 35000 kPa) was 829.6 ± 2.4 kg/m3 and the mass density (318.15 K, 40000 kPa) was 832.4 ± 2.4 kg/m3. The mass density (318.15 K, 45000 kPa) was 835.1 ± 2.4 kg/m3, the mass density (318.15 K, 50000 kPa) was 837.7 ± 2.4 kg/m3 and the mass density (318.15 K, 55000 kPa) was 840.3 ± 2.4 kg/m3. For the same compound, the mass density (318.15 K, 60000 kPa) was 842.6 ± 2.4 kg/m3, the mass density (328.15 K, 100 kPa) was 800.4 ± 2.4 kg/m3 and the mass density (328.15 K, 1000 kPa) was 801.1 ± 2.4 kg/m3. The mass density (328.15 K, 5000 kPa) was 804.1 ± 2.4 kg/m3, the mass density (328.15 K, 10000 kPa) was 807.7 ± 2.4 kg/m3 and the mass density (328.15 K, 15000 kPa) was 811.1 ± 2.4 kg/m3. For the same compound, the mass density (328.15 K, 20000 kPa) was 814.4 ± 2.4 kg/m3, the mass density (328.15 K, 25000 kPa) was 817.5 ± 2.4 kg/m3 and the mass density (328.15 K, 30000 kPa) was 820.5 ± 2.4 kg/m3. The mass density (328.15 K, 35000 kPa) was 823.5 ± 2.4 kg/m3, the mass density (328.15 K, 40000 kPa) was 826.4 ± 2.4 kg/m3 and the mass density (328.15 K, 45000 kPa) was 829.1 ± 2.4 kg/m3. The mass density (328.15 K, 50000 kPa) was 831.9 ± 2.4 kg/m3, the mass density (328.15 K, 55000 kPa) was 834.5 ± 2.4 kg/m3 and the mass density (328.15 K, 60000 kPa) was 836.9 ± 2.4 kg/m3. It also gave a mass density (338.15 K, 100 kPa) of 793.2 ± 2.4 kg/m3, a mass density (338.15 K, 1000 kPa) of 793.9 ± 2.4 kg/m3 and a mass density (338.15 K, 5000 kPa) of 796.9 ± 2.4 kg/m3. It also gave a mass density (338.15 K, 10000 kPa) of 800.8 ± 2.4 kg/m3, a mass density (338.15 K, 15000 kPa) of 804.4 ± 2.4 kg/m3 and a mass density (338.15 K, 20000 kPa) of 807.8 ± 2.4 kg/m3. The mass density (338.15 K, 25000 kPa) was 811.1 ± 2.4 kg/m3, the mass density (338.15 K, 30000 kPa) was 814.2 ± 2.4 kg/m3 and the mass density (338.15 K, 35000 kPa) was 817.3 ± 2.4 kg/m3. It also gave a mass density (338.15 K, 40000 kPa) of 820.3 ± 2.4 kg/m3, a mass density (338.15 K, 45000 kPa) of 823.1 ± 2.4 kg/m3 and a mass density (338.15 K, 50000 kPa) of 825.9 ± 2.4 kg/m3. For the same compound, the mass density (338.15 K, 55000 kPa) was 828.7 ± 2.4 kg/m3, the mass density (338.15 K, 60000 kPa) was 831.2 ± 2.4 kg/m3 and the mass density (348.15 K, 100 kPa) was 785.6 ± 2.4 kg/m3. For the same compound, the mass density (348.15 K, 1000 kPa) was 786.4 ± 2.4 kg/m3, the mass density (348.15 K, 5000 kPa) was 789.8 ± 2.4 kg/m3 and the mass density (348.15 K, 10000 kPa) was 793.6 ± 2.4 kg/m3. It also gave a mass density (348.15 K, 15000 kPa) of 797.4 ± 2.4 kg/m3, a mass density (348.15 K, 20000 kPa) of 801 ± 2.4 kg/m3 and a mass density (348.15 K, 25000 kPa) of 804.5 ± 2.4 kg/m3. It also gave a mass density (348.15 K, 30000 kPa) of 807.8 ± 2.4 kg/m3, a mass density (348.15 K, 35000 kPa) of 810.9 ± 2.4 kg/m3 and a mass density (348.15 K, 40000 kPa) of 814 ± 2.4 kg/m3. For the same compound, the mass density (348.15 K, 45000 kPa) was 817 ± 2.4 kg/m3, the mass density (348.15 K, 50000 kPa) was 819.9 ± 2.4 kg/m3 and the mass density (348.15 K, 55000 kPa) was 822.7 ± 2.4 kg/m3. The mass density (348.15 K, 60000 kPa) was 825.5 ± 2.5 kg/m3, the mass density (358.15 K, 100 kPa) was 778 ± 2.4 kg/m3 and the mass density (358.15 K, 1000 kPa) was 778.8 ± 2.4 kg/m3. The mass density (358.15 K, 5000 kPa) was 782.3 ± 2.4 kg/m3, the mass density (358.15 K, 10000 kPa) was 786.4 ± 2.4 kg/m3 and the mass density (358.15 K, 15000 kPa) was 790.4 ± 2.4 kg/m3. For the same compound, the mass density (358.15 K, 20000 kPa) was 794.1 ± 2.4 kg/m3, the mass density (358.15 K, 25000 kPa) was 797.7 ± 2.4 kg/m3 and the mass density (358.15 K, 30000 kPa) was 801.1 ± 2.4 kg/m3. For the same compound, the mass density (358.15 K, 35000 kPa) was 804.5 ± 2.4 kg/m3, the mass density (358.15 K, 40000 kPa) was 807.7 ± 2.4 kg/m3 and the mass density (358.15 K, 45000 kPa) was 810.8 ± 2.4 kg/m3. For the same compound, the mass density (358.15 K, 50000 kPa) was 813.6 ± 2.4 kg/m3, the mass density (358.15 K, 55000 kPa) was 816.7 ± 2.4 kg/m3 and the mass density (358.15 K, 60000 kPa) was 819.6 ± 2.5 kg/m3.

Reference: the NIST ThermoML archive (doi:10.1016/j.jct.2011.10.023)
